One compound from paper PMC4222822, “Discovery and Characterization of a Potent and Selective Inhibitor of Aedes aegypti Inward Rectifier Potassium Channels” (PLoS ONE, 2014) can be followed below.

The structures appear in SMILES notation.

The target in one test is T1, Kir4.1 (Homo sapiens, UniProt P78508).
T1 construct: expressed in transfected cells
T1 sequence (P78508 1-379): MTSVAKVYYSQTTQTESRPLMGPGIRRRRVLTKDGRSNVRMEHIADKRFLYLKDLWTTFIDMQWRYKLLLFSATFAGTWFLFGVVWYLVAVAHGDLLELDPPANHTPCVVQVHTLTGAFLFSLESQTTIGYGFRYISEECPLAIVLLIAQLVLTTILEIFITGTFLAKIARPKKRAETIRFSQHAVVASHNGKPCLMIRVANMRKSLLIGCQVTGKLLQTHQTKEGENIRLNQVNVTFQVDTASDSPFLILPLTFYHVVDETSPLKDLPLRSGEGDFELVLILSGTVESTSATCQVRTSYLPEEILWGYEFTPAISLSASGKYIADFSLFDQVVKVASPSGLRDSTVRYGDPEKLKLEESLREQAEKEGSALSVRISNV
Kind of test: Tl+ flux selectivity assay, Kir4.1. It counts as cell-based. Particulars: n = 2 independent experiments in triplicate, read-out: Inhibition of Tl+ flux (IC50). As to the method: Tl^+ flux assays were performed essentially as described previously, [18], [19]. Briefly, stably transfected T-Rex-HEK-293 cells expressing AeKir1 channels were cultured overnight in 384-well plates (20,000 cells/20 µL/well black-walled, clear-bottomed BD PureCoat amine-coated plates (BD, Bedford, MA) with a plating media containing DMEM, 10% dialyzed FBS and 1 µg/mL tetracycline. The next day, the cell culture medium was replaced with a dye-loading solution containing assay buffer (Hanks Balanced Salt Solution with 20 mM HEPES, pH 7.3), 0.01% (w/v) Pluronic F-127 (Life Technologies, Carlsbad, CA), and 1.2 µM of the thallium-sensitive dye Thallos-AM (TEFlabs, Austin, TX). Following 1 hr incubation at room temperature, the dye-loading solution was washed from the plates and replaced with 20 µL/well of assay buffer. […] Tl^+ flux data were analyzed as previously described, [21], [22] using a combination of Excel (Microsoft Corp, Redmond, WA) with XLfit add-in (IDBS, Guildford, Surrey, UK) and OriginPro (OriginLab, Northampton, MA) software. […] The slope of the fluorescence increase beginning 5 s after Tl^+ addition and ending 15 s after Tl^+ addition was calculated.

In test [1] the test system is mammalian Kir channels (Kir1.1, Kir2.1, Kir2.2, Kir2.3, Kir3.1/3.2, Kir4.1, Kir7.1(M125R), Kir6.2/SUR1). Kind of test: Tl+ flux assays against a panel of mammalian Kir channels. It is filed as cell-based. Particulars: vs AeKir1 IC50 = 96.8 nM. As to the method: The plates were transferred to a Hamamatsu Functional Drug Screening System 6000 (FDSS6000; Hamamatsu, Hamamatsu (or Bridgewater, NJ), Japan) where 20 µL/well of test compounds in assay buffer (as prepared below) were added and allowed to incubate with the cells for 20 min. After the incubation period, a baseline recording was collected at 1 Hz for 10 s (excitation 470±20 nm, emission 540±30 nm) followed by a Tl^+ stimulus buffer addition (10 µL/well) and data collection for an additional 4 min. The Tl^+ stimulus buffer contains in (mM) 125 NaHCO3, 1.8 CaSO4, 1 MgSO4, 5 glucose, 12 Tl2SO4, 10 HEPES, pH 7.4. For Tl^+ flux assays on the mammalian channels Kir2.x, Kir4.1 and Kir6.2/SUR1 expressing cells, the Tl^+ stimulus buffer contained 1.8 mM Tl2SO4. Also, Tl^+ flux assays on Kir3.1/3.2/mGlu8 expressing cell, required addition of an EC80 concentration of glutamate (Sigma-Aldrich, St. Louis, MO) with the Tl^+ stimulus buffer.
The test compounds were transferred to daughter polypropylene 384-well plates (Greiner Bio-One, Monroe, NC) using an Echo555 liquid handler (Labcyte, Sunnyvale, CA), and then diluted into assay buffer to generate a 2X stock in 0.6% DMSO (0.3% final). For Tl^+ flux assays on Kir6.2/SUR1 expressing cells, test compounds were diluted in assay buffer containing diazoxide (250 µM final) to induce channel activation. […]

Consider `CCC(=O)N1c2ccc(S(=O)(=O)Nc3cccc(OC)c3)cc2CC1C` (centres unmarked) [VU625, N-(3-methoxyphenyl)-2-methyl-1-propionylindoline-5-sulfonamide], for which the concentration for half-maximal inhibition (IC50) on Kir4.1 is over 30 µM. Moreover, the “selectivity for the AeKir1 channel over 8 mammalian Kir channels” value in test [1] was “greater than 80 fold”.
